The Deep4Chem optical property database
Blank lines part the entries; values can stand above or below the compound they belong to.

Experiment: solvent given as SMILES

- absorption maximum (in C1CCOC1): 492 nm
Structure (SMILES): N#Cc1ccc(C2=CC3=c4cc(-c5ccc(C#N)cc5)c5nc(C(F)(F)C(F)(F)C(F)(F)F)nc6c(-c7ccc(C#N)cc7)cc(c4c65)C4=CC(c5ccc(C#N)cc5)=C5N=C(C(F)(F)C(F)(F)C(F)(F)F)N=C2C5C43)cc1 (stereo not given)

- absorption maximum (in CC#N): 588 nm
- absorption maximum (in CCCCCC): 599 nm
- absorption maximum (in CCOC(C)=O): 593 nm
- absorption maximum (in CO): 585 nm
- absorption maximum (in ClCCl): 596 nm
Structure (SMILES): N#CSC1=CC2=C(c3ccccc3)c3cc(SC#N)c(N4CCOCC4)n3[B-](F)(F)[N+]2=C1N1CCOCC1

- absorption maximum (in CCO): 374 nm
Structure (SMILES): Cc1c(C)n2c(COC(=O)CNC(=O)OC(C)(C)C)c(C)c(=O)n2c1=O

Structure (SMILES): COc1cc2c3c4c(c5ccc(C(C)(C)C)cc5c5cc(C(C)(C)C)cc(c2c(OC)c1OC)c45)=[N+]1C3=Nc2c3c4cc(OC)c(OC)c(OC)c4c4cc(C(C)(C)C)cc5c6cc(C(C)(C)C)ccc6c(c3c54)n2[B-]1(F)F
- absorption maximum (in Cc1ccccc1): 826 nm

- absorption maximum (in CCO): 600 nm
- absorption maximum (in O): 600 nm
Structure (SMILES): CC/[NH+]=c1\cc2oc3cc(NCCC(=O)NC(CCC(=O)OC)C(=O)OC)c4ccccc4c3nc-2cc1C (stereo not given)

Structure (SMILES): CN(c1ccccc1)c1ccc(/C=C2\C(=O)c3ccccc3S2(=O)=O)cc1
- absorption maximum (in C1CCOC1): 468 nm
- absorption maximum (in C1COCCO1): 466 nm
- absorption maximum (in CC#N): 471 nm
- absorption maximum (in CC(C)=O): 470 nm
- absorption maximum (in CCOC(C)=O): 465 nm
- absorption maximum (in CN(C)C=O): 478 nm
- absorption maximum (in CO): 475 nm
- absorption maximum (in CS(C)=O): 483 nm
- absorption maximum (in Cc1ccccc1): 472 nm
- absorption maximum (in ClC(Cl)Cl): 479 nm
- absorption maximum (in ClCCl): 476 nm

- absorption maximum (in ClCCl): 337 nm
Structure (SMILES): Cc1cc2oc3ccccc3c2c2[nH]c3ccccc3c12

- absorption maximum (in CO): 778 nm
Structure (SMILES): CC1(C)C(/C=C/C2=C(Cl)C(=C/C=C3/N(CCCS(=O)(=O)[O-])c4ccccc4C3(C)C)/CCC2)=[N+](CCCS(=O)(=O)[O-])c2ccccc21

- absorption maximum (in ClC(Cl)Cl): 393 nm
Structure (SMILES): CCCCCCc1cc2c3cscc3c3cc(CCCCCC)sc3c2s1

- absorption maximum (in CN(C)C=O): 645 nm
- absorption maximum (in ClC(Cl)Cl): 643 nm
Structure (SMILES): CC(C)(C)c1cc(C(C)(C)C)c2oc3c(c2c1)C=CN1C(=O)C2=C4c5oc6c(C(C)(C)C)cc(C(C)(C)C)cc6c5C=CN4C(=O)C2=C31

Structure (SMILES): CN(C)c1ccc(-c2ccc(-c3cc(N4CCCCC4)c(C#N)c4c3-c3ccccc3CC4)s2)cc1
- absorption maximum (in C1CCCCC1): 368 nm
- absorption maximum (in C1CCOC1): 350 nm
- absorption maximum (in CN(C)C=O): 384 nm
- absorption maximum (in CS(C)=O): 379 nm
- absorption maximum (in Cc1ccccc1): 377 nm
- absorption maximum (in ClC(Cl)Cl): 377 nm

- absorption maximum (in ClCCl): 399 nm
Structure (SMILES): COc1ccc(C2=Nc3cccc4[n+]3[B-](F)(O2)OC(c2ccc(OC)cc2)=N4)cc1

- absorption maximum (in CC1CCCCC1): 317 nm
- absorption maximum (in CC#N): 314 nm
- absorption maximum (in CO): 302 nm
Structure (SMILES): COC(=O)C(NC(=O)OC(C)(C)C)c1ccc2oc(-c3ccc(F)cc3)nc2c1 (stereo not given)

- absorption maximum (in C1CCOC1): 387.5 nm
- absorption maximum (in CC#N): 388 nm
- absorption maximum (in CCO): 391 nm
- absorption maximum (in CN(C)C=O): 391.5 nm
- absorption maximum (in CO): 391.5 nm
- absorption maximum (in CS(C)=O): 393.5 nm
Structure (SMILES): CCOC(=O)c1sc(SC)c2c(=O)n(C)nnc12

Structure (SMILES): CCn1c2ccsc2c2c3nsnc3c3c4sccc4n(CC)c3c21
- absorption maximum (in C1CCOC1): 436 nm
- absorption maximum (in CCOC(C)=O): 433 nm
- absorption maximum (in CN(C)C=O): 441 nm
- absorption maximum (in Cc1ccccc1): 432 nm
- absorption maximum (in ClCCl): 436 nm

- absorption maximum (in ClCCl): 468 nm
Structure (SMILES): CCCCCCn1c2cc(C=O)sc2c2sc3c(sc4c5sc(C=O)cc5n(CCCCCC)c43)c21

- absorption maximum (in O): 342 nm
Structure (SMILES): Nc1ccc2ccc([O-])cc2c1

- absorption maximum (in C1CCCCC1): 315 nm
Structure (SMILES): CCCC1(CCC)c2ccccc2-c2ccc(-c3ccc(OC)cc3)cc21

- absorption maximum (in C1CCOC1): 398 nm
- absorption maximum (in CC#N): 394 nm
- absorption maximum (in CCCCCCC): 392 nm
- absorption maximum (in CS(C)=O): 401 nm
- absorption maximum (in ClCCl): 400 nm
Structure (SMILES): C(=C\c1ccncn1)/c1ccc(N(c2ccccc2)c2ccccc2)cc1

- absorption maximum (in CO): 487 nm
- absorption maximum (in OCC(O)CO): 509 nm
- absorption maximum (in OCCO): 498 nm
- absorption maximum (in Oc1ccccc1): 548 nm
Structure (SMILES): CN(CCO)c1ccc(/N=N/c2ccc([N+](=O)[O-])cc2)cc1

- absorption maximum (in ClCCl): 355 nm
Structure (SMILES): CC(C)(C)Nc1c(-c2ccc(-c3cc(=O)cc(-c4ccccc4)o3)cc2)nc2ccccn12

Structure (SMILES): CCCCCCCCc1ccc(-n2c3c4ccccc4nnc3c3c2c2nnc4ccccc4c2n3-c2ccc(CCCCCCCC)cc2)cc1
- absorption maximum (in Cc1ccccc1): 316 nm

Structure (SMILES): COc1ccc2c(c1)[nH]c1c3[nH]c4cc(OC)ccc4c3c3nsnc3c21
- absorption maximum (in CN(C)C=O): 436 nm
- absorption maximum (in Cc1ccccc1): 425 nm
- absorption maximum (in ClCCl): 430 nm

- absorption maximum (in CC#N): 336 nm
Structure (SMILES): Cc1cc(=O)c2c(ccc3ccc(O)cc32)o1

- absorption maximum (in C1CCOC1): 811 nm
- absorption maximum (in ClCCl): 826 nm
Structure (SMILES): CCCCCCCc1ccc(C2=[N+]3C(=C4c5cc(OCC(CC)CC)c(-c6ccc(CCCCCCC)o6)n5[B-](F)(F)[n+]5nnn(c54)[B-]3(F)F)C=C2OCC(CC)CC)o1

- absorption maximum (in ClCCl): 403 nm
Structure (SMILES): C[Si]1(C)c2cc(C#Cc3ccccc3)ccc2C=Cc2ccc(C#Cc3ccccc3)cc21

Structure (SMILES): CCCCC[n+]1ccc(/C=C/c2ccc(N(C)C)c3ccccc23)c2ccccc21
- absorption maximum (in C1CCOC1): 502 nm
- absorption maximum (in C1COCCO1): 495 nm
- absorption maximum (in CC#N): 496 nm
- absorption maximum (in CC(C)=O): 503 nm
- absorption maximum (in CCCCO): 522 nm
- absorption maximum (in CCO): 508 nm
- absorption maximum (in CN(C)C=O): 501 nm
- absorption maximum (in CO): 503 nm
- absorption maximum (in CS(C)=O): 506 nm
- absorption maximum (in ClC(Cl)Cl): 522 nm
- absorption maximum (in O): 452 nm
- absorption maximum (in c1ccccc1): 494 nm
- absorption maximum (in c1ccncc1): 526 nm

- absorption maximum (in C1CCCCC1): 487 nm
- absorption maximum (in CC1CCCCC1): 487.5 nm
- absorption maximum (in CC#N): 502 nm
- absorption maximum (in CCC(C)CC): 487 nm
- absorption maximum (in CCCCCC): 487.5 nm
- absorption maximum (in CCOC(C)=O): 498 nm
Structure (SMILES): CN(C)c1cccc2c1C(=O)c1ccccc1C2=O

- absorption maximum (in ClC(Cl)Cl): 398.5 nm
Structure (SMILES): F[B-]1(F)OC(c2ccc(C(F)(F)F)cc2)=Cc2c3ccccc3cc[n+]21

- absorption maximum (in CO): 800 nm
Structure (SMILES): O=C(O)c1ccc(C2=C(/C=C/c3[se]c4ccccc4[n+]3CCCCS(=O)(=O)[O-])CCC/C2=C\C=C2/[Se]c3ccccc3N2CCCCS(=O)(=O)[O-])cc1

Structure (SMILES): COc1cc(OC)c2c(c1)c1c(c3ccc(C(C)(C)C)cc32)=[N+]2C(=Nc3c(-c4cc(OC)c(OC)c(OC)c4)c4c5cc(OC)cc(OC)c5c5cc(C(C)(C)C)ccc5c4n3[B-]2(F)F)C=1c1cc(OC)c(OC)c(OC)c1
- absorption maximum (in Cc1ccccc1): 791 nm

Structure (SMILES): CC1(C)c2ccccc2N(c2ccc3c(c2)c2cc(N4c5ccccc5C(C)(C)c5ccccc54)ccc2c2nc4ccccc4nc32)c2ccccc21
- absorption maximum (in Cc1ccccc1): 380 nm

Structure (SMILES): c1ccc(C2CCN3COc4c5ccccc5c5c6c7c(c2c3c46)C(c2ccccc2)CCN7CO5)cc1 (stereo not given)
- absorption maximum (in C1CCCCC1): 403 nm
- absorption maximum (in C1CCOC1): 405 nm
- absorption maximum (in C1COCCO1): 405 nm
- absorption maximum (in CC#N): 405 nm
- absorption maximum (in CC(C)=O): 406 nm
- absorption maximum (in CCOC(C)=O): 404 nm
- absorption maximum (in CCOCC): 404 nm
- absorption maximum (in CN(C)C=O): 407 nm
- absorption maximum (in CO): 402 nm
- absorption maximum (in CS(C)=O): 408 nm
- absorption maximum (in Cc1ccccc1): 406 nm
- absorption maximum (in ClC(Cl)Cl): 404 nm
- absorption maximum (in ClCCl): 405 nm

- absorption maximum (in CCO): 331 nm
- absorption maximum (in CCOC(C)=O): 331 nm
- absorption maximum (in CN(C)C=O): 333 nm
- absorption maximum (in CO): 330 nm
- absorption maximum (in ClC(Cl)Cl): 334 nm
Structure (SMILES): COc1ccc2cc(-c3ccc(S(C)(=O)=O)cc3)oc(=O)c2c1

- absorption maximum (in ClC(Cl)Cl): 524 nm
Structure (SMILES): COc1ccc(N(c2ccc(OC)cc2)c2ccc(-c3ccc(C=C(C#N)C#N)o3)cc2)cc1
